Values quoted from earlier work, collected in patent US8802627B2, “Fusion protein composed of matrix metalloproteinase-2 inhibitor peptide derived from amyloid-B precursor protein and tissue inhibitor of metalloproteinase-2” (Oriental Yeast Co., Ltd., priority 2008, dated 2014).

How the values were obtained:
MMP-2 = biological target: T1, MMP-2 (Homo sapiens, UniProt P08253); conditions: prior art literature, J. Biol. Chem. 278, 14020-14028, 2003; read-out: reported IC50 upon MMP-2
T1 construct: which now consists of 551 amino acid residues is designated active MMP-2
T1 sequence (P08253 110-660): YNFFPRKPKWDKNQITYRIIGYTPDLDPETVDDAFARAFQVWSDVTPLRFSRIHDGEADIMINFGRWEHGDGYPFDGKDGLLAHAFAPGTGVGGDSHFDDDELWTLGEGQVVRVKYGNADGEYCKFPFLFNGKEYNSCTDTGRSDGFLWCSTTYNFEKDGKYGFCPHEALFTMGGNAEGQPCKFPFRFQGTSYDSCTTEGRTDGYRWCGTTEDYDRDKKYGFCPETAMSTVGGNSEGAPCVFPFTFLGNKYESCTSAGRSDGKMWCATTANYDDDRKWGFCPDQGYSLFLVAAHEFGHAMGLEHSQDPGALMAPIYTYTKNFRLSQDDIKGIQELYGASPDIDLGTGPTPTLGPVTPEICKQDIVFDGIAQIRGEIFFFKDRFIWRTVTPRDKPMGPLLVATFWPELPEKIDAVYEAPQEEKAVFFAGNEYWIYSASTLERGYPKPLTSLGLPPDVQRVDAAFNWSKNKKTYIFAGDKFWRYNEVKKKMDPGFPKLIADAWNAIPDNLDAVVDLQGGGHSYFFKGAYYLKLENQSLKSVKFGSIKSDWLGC

MMP-7 = biological target: T2, MMP-7 (Homo sapiens, UniProt P09237); conditions: prior art literature, J. Biol. Chem. 278, 14020-14028, 2003; read-out: reported IC50 upon MMP-7
T2 sequence (P09237 95-267): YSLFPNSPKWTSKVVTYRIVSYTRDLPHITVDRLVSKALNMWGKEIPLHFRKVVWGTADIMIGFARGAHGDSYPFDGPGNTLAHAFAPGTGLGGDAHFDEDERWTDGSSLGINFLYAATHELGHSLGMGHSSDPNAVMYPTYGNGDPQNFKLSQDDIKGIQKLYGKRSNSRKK

MMP-9 = MMP-9 (Homo sapiens, UniProt P14780); conditions: prior art literature, J. Biol. Chem. 278, 14020-14028, 2003; read-out: reported IC50 upon MMP-9
MT1-MMP catalytic domain = MT1-MMP catalytic domain (Homo sapiens, UniProt P50281); conditions: prior art literature, J. Biol. Chem. 278, 14020-14028, 2003; read-out: reported IC50 upon MT1-MMP catalytic domain

MMP-9, sequence (P14780 94-707): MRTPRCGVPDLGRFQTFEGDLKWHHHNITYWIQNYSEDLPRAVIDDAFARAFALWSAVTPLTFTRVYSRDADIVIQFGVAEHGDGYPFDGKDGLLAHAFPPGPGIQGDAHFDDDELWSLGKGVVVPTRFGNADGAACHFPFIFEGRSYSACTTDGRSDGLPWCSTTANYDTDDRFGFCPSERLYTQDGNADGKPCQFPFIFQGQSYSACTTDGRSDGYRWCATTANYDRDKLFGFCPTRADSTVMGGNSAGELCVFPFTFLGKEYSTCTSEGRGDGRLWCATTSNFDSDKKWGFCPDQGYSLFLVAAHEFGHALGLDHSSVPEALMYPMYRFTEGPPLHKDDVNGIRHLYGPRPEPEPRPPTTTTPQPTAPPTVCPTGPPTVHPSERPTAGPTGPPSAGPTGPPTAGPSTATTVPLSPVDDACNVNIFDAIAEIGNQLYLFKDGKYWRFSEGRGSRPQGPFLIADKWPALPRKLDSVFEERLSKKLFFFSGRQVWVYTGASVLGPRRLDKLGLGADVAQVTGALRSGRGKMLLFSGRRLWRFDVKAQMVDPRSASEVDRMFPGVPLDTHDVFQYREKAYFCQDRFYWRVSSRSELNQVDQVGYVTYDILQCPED

ISYGNDALMP [APP-IP]
IC50 (MMP-2): 0.03 µM | IC50 (MMP-7): 15 µM | IC50 (MMP-9): 20 µM | IC50 (MT1-MMP catalytic domain): 2 µM
